We go through 17 molecules from patent US20230033360A1, “COMPOUNDS AS CD73 INHIBITORS” (BioArdis LLC, priority 2019, published 2023).

SMILES strings stand for the structures. pIC50: −log10 of the molar value.

This assay addresses T1, Recombinant Human 5′-Nucleotidase (CD73) (Homo sapiens, UniProt P21589).
T1 construct: CHO derived CD73 (Trp27-Lys547), with a C-terminal 6-His tag; 6-His (C); purchased R&D 5795-EN; host or cells: CHO
T1 sequence (P21589 27-547): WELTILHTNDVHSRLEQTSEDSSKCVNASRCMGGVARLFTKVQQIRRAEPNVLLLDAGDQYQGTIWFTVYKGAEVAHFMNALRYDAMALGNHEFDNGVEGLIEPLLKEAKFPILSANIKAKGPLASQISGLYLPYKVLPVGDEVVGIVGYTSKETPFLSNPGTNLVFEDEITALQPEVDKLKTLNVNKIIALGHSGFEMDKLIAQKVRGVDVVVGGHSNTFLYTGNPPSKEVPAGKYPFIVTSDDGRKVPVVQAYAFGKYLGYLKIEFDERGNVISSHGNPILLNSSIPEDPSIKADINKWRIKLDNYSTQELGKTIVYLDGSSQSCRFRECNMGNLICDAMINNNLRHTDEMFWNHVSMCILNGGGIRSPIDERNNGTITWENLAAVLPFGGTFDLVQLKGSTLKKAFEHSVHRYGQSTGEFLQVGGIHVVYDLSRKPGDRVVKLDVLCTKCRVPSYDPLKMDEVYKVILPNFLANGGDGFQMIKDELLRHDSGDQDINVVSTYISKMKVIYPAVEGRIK
Nature of the assay: CD73 Enzyme Assay (PiColorLock inorganic phosphate detection, AMP substrate). In kind it is biochemical. The following applies: human CD73 0.5 nM, AMP 30 μM, 20 min at 37° C., absorbance 635 nm; read-out: Potency (IC50). An excerpt:
Soluble recombinant CD73 catalyzes the conversion of adenosine monophosphate (AMP) to adenosine and inorganic phosphate. The phosphate detection reagent, PiColorLock™ (Innova Bioscience, Cat #303-0125) is based on the change in absorbance of the dye malachite green in the presence of inorganic phosphate (Pi) and this property can be exploited to measure any enzyme that generates Pi. Recombinant Human 5′-Nucleotidase (CD73) (R&D #5795-EN, CHO derived CD73 (Trp27-Lys547), with a C-terminal 6-His tag) was used in the enzymatic assay. This assay, run in a 384-well plate format (Corning® NBS™ 384 well plates, Cat #3640), is a generic method for measuring inorganic phosphate. The basic assay procedure involves two steps: 1) Enzyme reaction: The CD73 enzyme (R&D #5795-EN) is incubated in the presence or absence of compounds. AMP (sigma, cat #01930) is added to start the […] reaction. 2) Detection step: Gold mix is added to the assay system, then stabilizers are added. After incubation the absorbance of the solution is read at OD 635 nm. The recorded OD signal is proportional to the enzyme activity.
Briefly, 25 μl human CD73 (0.5 nM final concentration) in the enzymatic buffer solutions (20 mM Tris, 25 mM NaCl, 1 mM MgCl2, pH 7.5, 0.005% Tween-20) were mixed with various concentrations of the test compound (dissolved in 100% DMSO). These solutions were incubated for 15 min at 25° C., and subsequently 25 μl AMP (30 μM final concentration) was added to start the reaction. The final reaction mixture of enzyme-substrate-compound was incubated for 20 min at 37° C. Meanwhile ‘Gold mix’ was prepared shortly before use by adding 1/100 vol. of accelerator to the PiColorLock™ Gold reagent. 12 μL/well of the ‘Gold mix’ was added to assay plate containing 50 μL enzyme reaction buffer and incubated at 25° C. for 5 min. 5 μL/well stabilizer was added to the assay plate and incubated at 25° C. for 30 min. The absorbance of the well solutions was measured at 635 nm on a Spark 10M instrument (TECAN).
The percent (%) inhibition at each concentration of a compound was calculated relative to the […] value in the Max and Min control wells contained within each assay plate. The Max control wells contained enzyme and substrate as 0% inhibition, and the Min control wells only contained substrate without enzyme as 100% inhibition. The concentrations and percent inhibition values for a test compound are plotted and the concentration of the compound required to achieve 50% inhibition (IC50) was determined with a four-parameter logistic dose response equation.
As a reminder, the pIC50 is the negative decadic logarithm of the IC50, by convention in mol/L. Consider `O=P(O)(O)CP(=O)(O)OC[C@H]1O[C@@H](c2cnc3c(NC4CCCC4)cc(Cl)nn23)[C@H](O)[C@@H]1O` [Example S1, (((((2R,3S,4R,5S)-5-(6-chloro-8-(cyclopentylamino)imidazo[1,2-b]pyridazin-3-yl)-3,4-dihydroxytetrahydrofuran-2-yl)methoxy)(hydroxy)phosphoryl)methyl)phosphonic acid], for which the pIC50 is 8.00 to 9.00.
With `C[C@H](Nc1cc(Cl)nn2c([C@@H]3O[C@H](COP(=O)(O)CP(=O)(O)O)[C@@H](O)[C@H]3O)cnc12)c1ccccc1F` [Example S2, [({[(2R,3S,4R,5S)-5-(6-chloro-8-{[(1S)-1-(2-fluorophenyl)ethyl]amino}imidazo[1,2-b]pyridazin-3-yl)-3,4-dihydroxyoxolan-2-yl]methoxy}(hydroxy)phosphoryl)methyl]phosphonic acid], the pIC50 is 8.00 to 9.00.
With `O=P(O)(O)CP(=O)(O)OC[C@H]1O[C@@H](c2cnc3c(N4CCC[C@H]4c4ccccc4)cc(Cl)nn23)[C@H](O)[C@@H]1O` [Example S3, (((((2R,3S,4R,5S)-5-(6-chloro-8-((S)-2-phenylpyrrolidin-1-yl)imidazo[1,2-b]pyridazin-3-yl)-3,4-dihydroxytetrahydrofuran-2-yl)methoxy)(hydroxy)phosphoryl)methyl)phosphonic acid], the pIC50 was 8.00 to 9.00.
Regarding `O=P(O)(O)CP(=O)(O)OC[C@H]1O[C@@H](c2cnc3c(N4CC5CCCC5C4)cc(Cl)nn23)[C@H](O)[C@@H]1O` (stereo partly drawn) [Example S4, (((((2R,3S,4R,5S)-5-(6-chloro-8-(hexahydrocyclopenta[c]pyrrol-2 (1H)-yl)imidazo[1,2-b]pyridazin-3-yl)-3,4-dihydroxytetrahydrofuran-2-yl)methoxy)(hydroxy)phosphoryl)methyl) phosphonic acid], the pIC50 is over 9.00.
Turning to `O=P(O)(O)CP(=O)(O)OC[C@H]1O[C@@H](c2cnc3c(NC4CCCCC4)cc(Cl)nn23)[C@H](O)[C@@H]1O` [Example S5, (((((2R,3S,4R,5S)-5-(6-chloro-8-(cyclohexylamino)imidazo[1,2-b]pyridazin-3-yl)-3,4-dihydroxytetrahydrofuran-2-yl)methoxy)(hydroxy)phosphoryl)methyl)phosphonic acid], the pIC50 is 8.00 to 9.00.
Turning to `O=P(O)(O)CP(=O)(O)OC[C@H]1O[C@@H](c2cnc3c(NC4CC5CCC4C5)cc(Cl)nn23)[C@H](O)[C@@H]1O` (stereo partly drawn) [Example S6, (((((2R,3S,4R,5S)-5-(8-(bicyclo[2.2.1]heptan-2-ylamino)-6-chloroimidazo[1,2-b]pyridazin-3-yl)-3,4-dihydroxytetrahydrofuran-2-yl)methoxy)(hydroxy)phosphoryl)methyl)phosphonic acid], the negative logarithm of the IC50 (pIC50) was 8.00 to 9.00.
Consider `O=P(O)(O)CP(=O)(O)OC[C@H]1O[C@@H](c2ncc3c(NC4CCCC4)cc(Cl)nn23)[C@H](O)[C@@H]1O` [Example S7, (((((2R,3S,4R,5S)-5-(2-chloro-4-(cyclopentylamino)imidazo[1,5-b]pyridazin-7-yl)-3,4-dihydroxytetrahydrofuran-2-yl)methoxy)(hydroxy)phosphoryl)methyl)phosphonic acid], for which the pIC50 is 8.00 to 9.00.
For the molecule `O=P(O)(O)CP(=O)(O)OC[C@H]1O[C@@H](c2ncc3c(N4CCC[C@H]4c4ccccc4)cc(Cl)nn23)[C@H](O)[C@@H]1O` [Example S8, (((((2R,3S,4R,5S)-5-(2-chloro-4-((S)-2-phenylpyrrolidin-1-yl)imidazo[1,5-b]pyridazin-7-yl)-3,4-dihydroxytetrahydrofuran-2-yl)methoxy)(hydroxy)phosphoryl)methyl)phosphonic acid], the pIC50 is 8.00 to 9.00.
With `O=P(O)(O)CP(=O)(O)OC[C@H]1O[C@@H](c2ncc3c(N4CC5CCCC5C4)cc(Cl)nn23)[C@H](O)[C@@H]1O` (stereo partly drawn) [Example S9, [({[(2R,3S,4R,5S)-5-(2-chloro-4-{hexahydro-1H-cyclopenta[c]pyrrol-2-yl}imidazo[1,5-b]pyridazin-7-yl)-3,4-dihydroxyoxolan-2-yl]methoxy}(hydroxy)phosphoryl)methyl]phosphonic acid] the figure was over 9.00.
With `O=P(O)(O)CP(=O)(O)OC[C@H]1O[C@@H](c2csc3c(NC4CCCC4)nc(Cl)nc23)[C@H](O)[C@@H]1O` [Example S10, (((((2R,3S,4R,5S)-5-(2-chloro-4-(cyclopentylamino)thieno[3,2-d]pyrimidin-7-yl)-3,4-dihydroxytetrahydrofuran-2-yl)methoxy)(hydroxy)phosphoryl)methyl)phosphonic acid] the figure was over 9.00; with `O=P(O)(O)CP(=O)(O)OC[C@H]1O[C@H](c2csc3c(NC4CCCC4)nc(Cl)nc23)[C@H](O)[C@@H]1O` [Example S11], 7.00 to 8.00.
As to `O=P(O)(O)CP(=O)(O)OC[C@H]1OC(c2cnc3c(NC4CCOC4)cc(Cl)nn23)[C@H](O)[C@@H]1O` (stereo partly drawn) [Example S12, (((((2R,3S,4R)-5-(6-chloro-8-((tetrahydrofuran-3-yl)amino)imidazo[1,2-b]pyridazin-3-yl)-3,4-dihydroxytetrahydrofuran-2-yl)methoxy)(hydroxy)phosphoryl)methyl)phosphonic acid], the pIC50 was 8.00 to 9.00.
The value for `O=P(O)(O)CP(=O)(O)OC[C@H]1OC(c2cnc3c(NC4CCC(F)(F)C4)cc(Cl)nn23)[C@H](O)[C@@H]1O` (stereo partly drawn) [Example S13, (((((2R,3S,4R)-5-(6-chloro-8-((3,3-difluorocyclopentyl)amino)imidazo[1,2-b]pyridazin-3-yl)-3,4-dihydroxytetrahydrofuran-2-yl)methoxy)(hydroxy)phosphoryl)methyl)phosphonic acid] was 8.00 to 9.00.
On to `O=P(O)(O)CP(=O)(O)OC[C@H]1OC(c2cnc3c(NCc4ccccc4)cc(Cl)nn23)[C@H](O)[C@@H]1O` (stereo partly drawn) [Example S14, (((((2R,3S,4R)-5-(8-(benzylamino)-6-chloroimidazo[1,2-b]pyridazin-3-yl)-3,4-dihydroxytetrahydrofuran-2-yl)methoxy)(hydroxy)phosphoryl)methyl)phosphonic acid], for which the negative logarithm of the IC50 (pIC50) is 8.00 to 9.00.
Take `O=P(O)(O)CP(=O)(O)OC[C@H]1OC(c2cnc3c(NCc4ccccc4Cl)cc(Cl)nn23)[C@H](O)[C@@H]1O` (stereo partly drawn) [Example S15, (((((2R,3S,4R)-5-(6-chloro-8-((2-chlorobenzyl)amino)imidazo[1,2-b]pyridazin-3-yl)-3,4-dihydroxytetrahydrofuran-2-yl)methoxy)(hydroxy)phosphoryl)methyl)phosphonic acid]: the pIC50 was 8.00 to 9.00.
On to `C[C@H](Nc1cc(Cl)nn2c(C3O[C@H](COP(=O)(O)CP(=O)(O)O)[C@@H](O)[C@H]3O)cnc12)c1cccc(F)c1` (stereo partly drawn) [Example S16, (((((2R,3S,4R)-5-(6-chloro-8-(((S)-1-(3-fluorophenyl)ethyl)amino)imidazo[1,2-b]pyridazin-3-yl)-3,4-dihydroxytetrahydrofuran-2-yl)methoxy)(hydroxy)phosphoryl)methyl)phosphonic acid], for which the pIC50 was 8.00 to 9.00.
Turning to `C[C@H](Nc1cc(Cl)nn2c(C3O[C@H](COP(=O)(O)CP(=O)(O)O)[C@@H](O)[C@H]3O)cnc12)c1ccc(F)cc1` (stereo partly drawn) [Example S17, (((((2R,3S,4R)-5-(6-chloro-8-(((S)-1-(4-fluorophenyl)ethyl)amino)imidazo[1,2-b]pyridazin-3-yl)-3,4-dihydroxytetrahydrofuran-2-yl)methoxy)(hydroxy)phosphoryl)methyl)phosphonic acid], the pIC50 is over 9.00.
